In US10844077B2, “Thiazolyl-containing compounds for treating proliferative diseases” (Dana-Farber Cancer Institute, Inc., priority 2014, dated 2020):
Where two headings read alike, the source gives them in different places.

How the values were obtained:
[1] = target: broad panel of kinases (Homo sapiens, UniProt P51957); format: binding; conditions: NEK4; 1 μM
[2] = target: broad panel of kinases (Homo sapiens, UniProt Q13554); format: binding; conditions: CAMK2B; 1 μM
[3] = target: broad panel of kinases (Homo sapiens, UniProt Q8TBX8); format: binding; conditions: PIP5K2C; 1 μM
[4] = target: broad panel of kinases (Homo sapiens, UniProt Q6PHR2); format: binding; conditions: ULK3; 1 μM
[5] = target: broad panel of kinases (Homo sapiens, UniProt O60285); format: binding; conditions: ARK5; 1 μM
[6] = target: broad panel of kinases (Homo sapiens, UniProt Q13188); format: binding; conditions: MST2; 1 μM
[7] = target: broad panel of kinases (Homo sapiens, UniProt Q14004); format: binding; conditions: CDC2L5; 1 μM
[8] = target: broad panel of kinases (Homo sapiens, UniProt Q16659); format: binding; conditions: ERK3; 1 μM
[9] = target: broad panel of kinases (Homo sapiens, UniProt Q15303); format: binding; conditions: ERBB4; 1 μM
[10] = target: broad panel of kinases (Homo sapiens, UniProt Q9P0L2); format: binding; conditions: MARK1; 1 μM
[11] = target: broad panel of kinases (Homo sapiens, UniProt P07949, V804L); format: binding; conditions: RET(V804L); 1 μM
broad panel of kinases (Homo sapiens, UniProt P07949, V804L), sequence (P07949 29-1114 V804L limits assumed): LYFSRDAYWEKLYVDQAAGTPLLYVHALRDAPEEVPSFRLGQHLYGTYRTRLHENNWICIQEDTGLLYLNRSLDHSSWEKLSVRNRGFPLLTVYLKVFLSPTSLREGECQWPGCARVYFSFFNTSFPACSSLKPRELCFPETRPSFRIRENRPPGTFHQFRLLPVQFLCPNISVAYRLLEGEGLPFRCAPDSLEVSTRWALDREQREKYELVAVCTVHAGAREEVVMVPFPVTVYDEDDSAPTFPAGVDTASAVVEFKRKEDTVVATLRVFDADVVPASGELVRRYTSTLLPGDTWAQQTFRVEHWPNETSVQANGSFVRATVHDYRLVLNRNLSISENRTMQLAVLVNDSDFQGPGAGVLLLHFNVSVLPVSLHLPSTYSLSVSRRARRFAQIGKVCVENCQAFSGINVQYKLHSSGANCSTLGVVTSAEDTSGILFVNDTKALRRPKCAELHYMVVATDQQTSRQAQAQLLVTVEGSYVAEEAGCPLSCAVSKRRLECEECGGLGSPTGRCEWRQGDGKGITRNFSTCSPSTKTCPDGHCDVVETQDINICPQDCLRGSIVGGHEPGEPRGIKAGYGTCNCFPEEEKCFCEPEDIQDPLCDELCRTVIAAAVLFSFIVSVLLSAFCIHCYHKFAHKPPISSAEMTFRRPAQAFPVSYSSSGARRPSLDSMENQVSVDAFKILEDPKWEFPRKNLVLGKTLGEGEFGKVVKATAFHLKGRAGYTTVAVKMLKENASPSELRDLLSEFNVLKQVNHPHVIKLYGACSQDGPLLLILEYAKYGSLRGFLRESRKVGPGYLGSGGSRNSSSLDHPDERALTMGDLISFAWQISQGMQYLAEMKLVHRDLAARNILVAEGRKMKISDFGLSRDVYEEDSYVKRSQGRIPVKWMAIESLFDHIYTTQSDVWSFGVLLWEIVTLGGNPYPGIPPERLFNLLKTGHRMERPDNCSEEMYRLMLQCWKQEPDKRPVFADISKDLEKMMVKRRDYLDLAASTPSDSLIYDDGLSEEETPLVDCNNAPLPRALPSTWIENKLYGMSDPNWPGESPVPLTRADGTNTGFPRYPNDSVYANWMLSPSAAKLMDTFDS

[12] = target: broad panel of kinases (Homo sapiens, UniProt Q00537); format: binding; conditions: PCTK2; 1 μM
[13] = target: broad panel of kinases (Homo sapiens, UniProt Q15831); format: binding; conditions: LKB1; 1 μM
[14] = target: broad panel of kinases (Homo sapiens, UniProt P36888); format: binding; conditions: 1 μM
broad panel of kinases (Homo sapiens, UniProt P36888), sequence (P36888 27-993 limits assumed): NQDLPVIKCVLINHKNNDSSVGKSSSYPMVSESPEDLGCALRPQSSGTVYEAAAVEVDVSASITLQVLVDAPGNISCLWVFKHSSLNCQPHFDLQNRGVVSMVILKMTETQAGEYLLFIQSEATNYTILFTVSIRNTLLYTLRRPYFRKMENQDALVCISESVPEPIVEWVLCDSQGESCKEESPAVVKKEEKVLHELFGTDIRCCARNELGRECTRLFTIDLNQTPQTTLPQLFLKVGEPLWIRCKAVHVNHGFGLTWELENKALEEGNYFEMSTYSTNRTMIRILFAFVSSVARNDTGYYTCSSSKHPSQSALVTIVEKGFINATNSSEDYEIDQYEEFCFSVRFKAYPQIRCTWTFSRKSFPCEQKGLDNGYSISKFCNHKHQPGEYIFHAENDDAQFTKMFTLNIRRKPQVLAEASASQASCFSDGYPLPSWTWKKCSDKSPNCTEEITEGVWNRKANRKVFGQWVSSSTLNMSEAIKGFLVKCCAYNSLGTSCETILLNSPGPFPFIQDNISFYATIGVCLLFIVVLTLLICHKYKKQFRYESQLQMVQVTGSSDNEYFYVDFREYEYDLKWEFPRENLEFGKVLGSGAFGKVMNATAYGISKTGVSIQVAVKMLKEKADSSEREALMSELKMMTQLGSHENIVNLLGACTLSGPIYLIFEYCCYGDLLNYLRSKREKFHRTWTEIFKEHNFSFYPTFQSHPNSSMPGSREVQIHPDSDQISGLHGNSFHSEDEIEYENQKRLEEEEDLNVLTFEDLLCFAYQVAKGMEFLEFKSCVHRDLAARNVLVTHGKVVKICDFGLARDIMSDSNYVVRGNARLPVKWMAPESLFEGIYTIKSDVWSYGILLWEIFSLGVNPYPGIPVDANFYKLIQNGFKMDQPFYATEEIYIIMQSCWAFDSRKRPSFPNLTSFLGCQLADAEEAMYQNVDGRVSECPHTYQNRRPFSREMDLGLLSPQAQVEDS

[15] = target: broad panel of kinases (Homo sapiens, UniProt P37173); format: binding; conditions: TGFBR2; 1 μM
[16] = target: broad panel of kinases (Homo sapiens, UniProt P10721, V559D/V654A); format: binding; conditions: KIT(V559D, V654A); 1 μM
[17] = target: broad panel of kinases (Homo sapiens, UniProt Q86V86); format: binding; conditions: PIM3; 1 μM
[18] = target: broad panel of kinases (Homo sapiens, UniProt P19525); format: binding; conditions: PRKR; 1 μM
broad panel of kinases (Homo sapiens, UniProt P19525), sequence (P19525 2-551 limits assumed): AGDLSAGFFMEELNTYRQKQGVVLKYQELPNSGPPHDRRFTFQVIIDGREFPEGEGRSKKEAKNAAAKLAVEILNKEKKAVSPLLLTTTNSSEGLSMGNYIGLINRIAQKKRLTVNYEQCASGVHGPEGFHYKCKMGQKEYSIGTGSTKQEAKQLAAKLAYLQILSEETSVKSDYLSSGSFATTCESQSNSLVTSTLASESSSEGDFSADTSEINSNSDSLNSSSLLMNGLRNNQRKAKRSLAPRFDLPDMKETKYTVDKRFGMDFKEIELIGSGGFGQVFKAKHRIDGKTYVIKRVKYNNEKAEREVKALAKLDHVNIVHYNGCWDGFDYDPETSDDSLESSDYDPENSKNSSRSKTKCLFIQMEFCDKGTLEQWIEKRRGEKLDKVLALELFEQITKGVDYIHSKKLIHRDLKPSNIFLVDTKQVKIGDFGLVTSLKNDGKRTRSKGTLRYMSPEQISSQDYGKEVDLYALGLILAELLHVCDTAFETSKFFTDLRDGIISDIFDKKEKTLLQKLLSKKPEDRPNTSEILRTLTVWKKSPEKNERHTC

[19] = target: broad panel of kinases (Homo sapiens, UniProt P00533, G719C); format: binding; conditions: EGFR(G719C); 1 μM
[20] = target: broad panel of kinases (Homo sapiens, UniProt O95747); format: binding; conditions: OSR1; 1 μM
[21] = target: broad panel of kinases (Homo sapiens, UniProt P31152); format: binding; conditions: ERK4; 1 μM
[22] = target: broad panel of kinases (Homo sapiens, UniProt Q14164); format: binding; conditions: IKK-epsilon; 1 μM
[23] = target: broad panel of kinases (Homo sapiens, UniProt P07948); format: binding; conditions: LYN; 1 μM
broad panel of kinases (Homo sapiens, UniProt P07948), sequence (P07948 2-512 limits assumed): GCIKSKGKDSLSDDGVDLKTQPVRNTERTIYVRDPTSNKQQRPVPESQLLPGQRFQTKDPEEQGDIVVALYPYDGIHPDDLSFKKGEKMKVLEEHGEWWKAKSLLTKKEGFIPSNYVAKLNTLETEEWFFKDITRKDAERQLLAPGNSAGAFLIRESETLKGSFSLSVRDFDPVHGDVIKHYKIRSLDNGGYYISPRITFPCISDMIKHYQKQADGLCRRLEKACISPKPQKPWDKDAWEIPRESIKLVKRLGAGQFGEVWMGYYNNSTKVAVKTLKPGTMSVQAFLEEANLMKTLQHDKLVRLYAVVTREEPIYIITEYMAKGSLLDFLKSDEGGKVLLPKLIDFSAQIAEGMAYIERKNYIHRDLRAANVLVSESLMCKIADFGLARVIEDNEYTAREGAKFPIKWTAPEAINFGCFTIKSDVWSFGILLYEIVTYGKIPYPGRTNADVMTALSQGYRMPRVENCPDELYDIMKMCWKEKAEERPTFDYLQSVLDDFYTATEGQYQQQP

[24] = target: broad panel of kinases (Homo sapiens, UniProt Q9BYT3); format: binding; conditions: STK33; 1 μM
[25] = target: kinases in BCWM.1 cells (Homo sapiens, UniProt P43405); assay: KINATIV assay of compounds I-3 and I-9, lysate directly labeled with ATP-biotin probe (no GF); format: cell-based; conditions: SYK; Activation Loop; 1 μM, 90 min; no GF
Protocol: (§1) The cells were harvested and lysed. […] Bound kinases were identified and quantitated by ACTIVX as described in Patricelli et al., Biochemistry, 2007, 46(2): 350-358. The compounds were tested in duplicates against duplicate or quadruplicate control samples.

[26] = target: kinases in BCWM.1 cells (Homo sapiens, UniProt Q58A45); assay: as above; format: cell-based; conditions: PAN3; Protein Kinase Domain; 1 μM, 90 min; no GF
Protocol: as §1

[27] = target: kinases in BCWM.1 cells (Homo sapiens, UniProt O15530); assay: as above; format: cell-based; conditions: PDK1; Lys1; 1 μM, 90 min; no GF
Protocol: as §1

[28] = target: kinases in BCWM.1 cells (Homo sapiens, UniProt Q86SG6); assay: as above; format: cell-based; conditions: NEK8; Lys2; 1 μM, 90 min; no GF
Protocol: as §1

[29] = target: kinases in BCWM.1 cells (Homo sapiens, UniProt Q9UKE5); assay: as above; format: cell-based; conditions: ZC2/TNIK; Lys1; 1 μM, 90 min; no GF
Protocol: as §1

[30] = target: kinases in BCWM.1 cells (Homo sapiens, UniProt Q15208); assay: as above; format: cell-based; conditions: NDR1; Lys2; 1 μM, 90 min; no GF
kinases in BCWM.1 cells (Homo sapiens, UniProt Q15208), sequence (Q15208 2-465 limits assumed): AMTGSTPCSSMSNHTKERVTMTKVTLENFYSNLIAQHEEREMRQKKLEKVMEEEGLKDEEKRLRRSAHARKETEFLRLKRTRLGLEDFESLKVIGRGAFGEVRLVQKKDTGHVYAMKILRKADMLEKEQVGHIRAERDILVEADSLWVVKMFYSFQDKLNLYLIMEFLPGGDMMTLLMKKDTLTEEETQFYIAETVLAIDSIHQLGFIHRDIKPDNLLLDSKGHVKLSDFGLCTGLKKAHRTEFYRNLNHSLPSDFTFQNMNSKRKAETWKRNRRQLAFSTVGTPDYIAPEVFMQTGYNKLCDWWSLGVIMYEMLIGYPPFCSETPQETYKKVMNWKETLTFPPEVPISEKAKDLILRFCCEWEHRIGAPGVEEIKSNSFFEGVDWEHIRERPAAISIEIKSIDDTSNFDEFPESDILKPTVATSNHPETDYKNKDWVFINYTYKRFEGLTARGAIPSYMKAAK
Protocol: as §1

[31] = target: kinases in BCWM.1 cells (Homo sapiens, UniProt Q13523); assay: as above; format: cell-based; conditions: PRP4; Lys2; 1 μM, 90 min; no GF
Protocol: as §1

[32] = target: kinases in BCWM.1 cells (Homo sapiens, UniProt Q13464); assay: as above; format: cell-based; conditions: ROCK1; Protein Kinase Domain; 1 μM, 90 min; no GF
kinases in BCWM.1 cells (Homo sapiens, UniProt Q13464), sequence (Q13464 2-1354 limits assumed): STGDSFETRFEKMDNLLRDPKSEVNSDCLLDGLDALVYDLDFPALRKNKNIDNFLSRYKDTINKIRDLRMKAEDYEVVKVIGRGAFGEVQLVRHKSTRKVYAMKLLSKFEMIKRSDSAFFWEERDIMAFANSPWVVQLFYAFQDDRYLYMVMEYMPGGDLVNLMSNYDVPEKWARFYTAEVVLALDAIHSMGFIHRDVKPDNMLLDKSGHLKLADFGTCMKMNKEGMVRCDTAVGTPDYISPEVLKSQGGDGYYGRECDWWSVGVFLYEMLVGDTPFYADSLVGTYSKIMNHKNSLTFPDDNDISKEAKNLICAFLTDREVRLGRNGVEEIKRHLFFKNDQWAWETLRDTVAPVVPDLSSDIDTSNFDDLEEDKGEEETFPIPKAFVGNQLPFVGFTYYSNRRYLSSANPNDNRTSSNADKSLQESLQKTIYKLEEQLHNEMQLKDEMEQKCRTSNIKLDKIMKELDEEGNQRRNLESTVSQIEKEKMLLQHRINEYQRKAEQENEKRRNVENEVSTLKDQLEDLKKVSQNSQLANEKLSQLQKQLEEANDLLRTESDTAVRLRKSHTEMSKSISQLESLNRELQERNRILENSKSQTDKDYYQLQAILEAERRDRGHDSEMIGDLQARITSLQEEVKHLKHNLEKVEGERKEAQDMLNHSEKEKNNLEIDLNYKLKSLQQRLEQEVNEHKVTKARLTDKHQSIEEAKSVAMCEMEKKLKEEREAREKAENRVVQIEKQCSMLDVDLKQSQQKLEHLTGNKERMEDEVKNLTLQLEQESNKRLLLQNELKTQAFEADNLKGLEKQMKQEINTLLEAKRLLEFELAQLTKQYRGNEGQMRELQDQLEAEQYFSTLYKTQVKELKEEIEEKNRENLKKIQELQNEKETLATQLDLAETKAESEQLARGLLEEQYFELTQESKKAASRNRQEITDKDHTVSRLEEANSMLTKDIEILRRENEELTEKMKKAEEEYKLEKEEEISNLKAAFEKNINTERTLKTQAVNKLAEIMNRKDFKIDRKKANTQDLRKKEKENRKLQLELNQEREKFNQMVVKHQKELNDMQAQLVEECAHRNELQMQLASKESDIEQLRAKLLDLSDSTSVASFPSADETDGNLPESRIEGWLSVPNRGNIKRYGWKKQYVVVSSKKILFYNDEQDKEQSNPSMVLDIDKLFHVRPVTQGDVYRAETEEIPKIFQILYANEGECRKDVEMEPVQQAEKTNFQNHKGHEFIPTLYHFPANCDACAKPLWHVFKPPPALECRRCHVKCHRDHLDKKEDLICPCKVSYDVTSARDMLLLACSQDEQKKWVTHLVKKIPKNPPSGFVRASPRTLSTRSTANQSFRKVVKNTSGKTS
Protocol: as §1

[33] = target: kinases in BCWM.1 cells (Homo sapiens, UniProt Q96S44); assay: as above; format: cell-based; conditions: PRPK; ATP Loop; 1 μM, 90 min; no GF
Protocol: as §1

| Structure (SMILES) | percent of control binding remaining (lower = stronger binding) [1] [%] | percent of control binding remaining (lower = stronger binding) [2] [%] | percent of control binding remaining (lower = stronger binding) [3] [%] | percent of control binding remaining (lower = stronger binding) [4] [%] | percent of control binding remaining (lower = stronger binding) [5] [%] | percent of control binding remaining (lower = stronger binding) [6] [%] | percent of control binding remaining (lower = stronger binding) [7] [%] | percent of control binding remaining (lower = stronger binding) [8] [%] | percent of control binding remaining (lower = stronger binding) [9] [%] | percent of control binding remaining (lower = stronger binding) [10] [%] | percent of control binding remaining (lower = stronger binding) [11] [%] | percent of control binding remaining (lower = stronger binding) [12] [%] | percent of control binding remaining (lower = stronger binding) [13] [%] | percent of control binding remaining (lower = stronger binding) ([14]; FLT3-autoinhibited) [%] | percent of control binding remaining (lower = stronger binding) ([14]; FLT3) [%] | percent of control binding remaining (lower = stronger binding) [15] [%] | percent of control binding remaining (lower = stronger binding) [16] [%] | percent of control binding remaining (lower = stronger binding) [17] [%] | percent of control binding remaining (lower = stronger binding) [18] [%] | percent of control binding remaining (lower = stronger binding) [19] [%] | further results |
| --- | --- | --- | --- | --- | --- | --- | --- | --- | --- | --- | --- | --- | --- | --- | --- | --- | --- | --- | --- | --- | --- |
| C=CC(=O)N1CC[C@H](Nc2nc(CN3CCOCC3)cc(Nc3ncc(C(=O)Nc4c(C)cccc4C)s3)n2)C1 [Example I-2] | 100 | 84 | 100 | 97 | 99 | 69 | 100 | 100 | 0.6 | 97 | 98 | 100 | 100 | 100 | 100 | 94 | 7.2 | 97 | 89 | 23 | percent of control binding remaining (lower = stronger binding) [20]: 81%; percent of control binding remaining (lower = stronger binding) [21]: 90%; percent of control binding remaining (lower = stronger binding) [22]: 100%; percent of control binding remaining (lower = stronger binding) [23]: 0%; percent of control binding remaining (lower = stronger binding) [24]: 86% |
| C=CC(=O)N1CC[C@H](Nc2nccc(Nc3ncc(C(=O)Nc4c(C)cccc4C)s3)n2)C1 [Example I-3] | 100 | 81 | 100 | 98 | 100 | 94 | 100 | 89 | 0.2 | 93 | 100 | 81 | 100 | 100 | 84 | 100 | 25 | 89 | 69 | 14 | % change of MS signal compared to control sample [25]: −1.2%; % change of MS signal compared to control sample [26]: −17.5%; % change of MS signal compared to control sample [27]: −8.4%; % change of MS signal compared to control sample [28]: 5.1%; % change of MS signal compared to control sample [29]: −15.6%; % change of MS signal compared to control sample [30]: 2.3%; % change of MS signal compared to control sample [31]: 5.9%; % change of MS signal compared to control sample [32]: 2.6%; % change of MS signal compared to control sample [33]: 2.1%; percent of control binding remaining (lower = stronger binding) [20]: 98%; percent of control binding remaining (lower = stronger binding) [21]: 62%; percent of control binding remaining (lower = stronger binding) [22]: 100%; percent of control binding remaining (lower = stronger binding) [23]: 0.1%; percent of control binding remaining (lower = stronger binding) [24]: 96% |
| CCC(=O)N1CC[C@H](Nc2nccc(Nc3ncc(C(=O)Nc4c(C)cccc4C)s3)n2)C1 [Example I-9] | – | – | – | – | – | – | – | – | – | – | – | – | – | – | – | – | – | – | – | – | % change of MS signal compared to control sample [25]: −6.5%; % change of MS signal compared to control sample [26]: 23.2%; % change of MS signal compared to control sample [27]: −6.4%; % change of MS signal compared to control sample [28]: −14.1%; % change of MS signal compared to control sample [29]: 23.4%; % change of MS signal compared to control sample [30]: −4.2%; % change of MS signal compared to control sample [31]: −24.8%; % change of MS signal compared to control sample [32]: −7.3%; % change of MS signal compared to control sample [33]: −2% |
